Assay [1] addresses human CMV DNA polymerase UL54 (Human cytomegalovirus (strain AD169) (HHV-5) (Human herpesvirus 5), UniProt P08546). In words: biochemical.
Assay [2] addresses human HSV DNA polymerase UL30 (Human herpesvirus 1 (strain 17) (HHV-1) (Human herpes simplex virus 1), UniProt P04293). As to the kind of experiment: biochemical. As to conditions: 20 minutes at room temperature.
Assay [3] has as its system Luciferase-encoding HCMV (AD169 strain). As to the kind of experiment: microbe, parasite or virus in culture. The class given is cell-based.
The subject of a further assay is VZV Ellen strain. In words: VZV qPCR assay. As to conditions: Human alphaherpesvirus 3, MRC5, 48 h, read-out: Cellular activity against VZV (EC50).
For assay [4], the system named is EBV (SNU-719 gastric carcinoma cell line latently infected). As to the kind of experiment: EBV qPCR assay. As to conditions: human gammaherpesvirus 4, 72 h, read-out: Cellular activity against EBV (EC50).
Assay [5] relates to KOS strain of HSV-1 virus. In words: HSV-1 qPCR assay. As to conditions: read-out: Cellular activity against HSV-1 (EC50). (Real-time PCR tracks product formation cycle by cycle.)
[6] abbreviates: HSV-polymerase Biochemical IC50, 625 pM HSV polymerase.
Setting [7] is: 100 pM CMV polymerase, 60 minutes at room temperature, read-out: CMV-polymerase Biochemical IC50.
The mark [8] stands for this setting: 625 pM HSV polymerase, read-out: HSV-polymerase Biochemical IC50.
The mark [9] stands for this setting: Human betaherpesvirus 5, AD169, 72 h, read-out: CMV-Luc Cellular EC50, NN-NHDF cells, MOI of 1, 72 hrs.
[10] abbreviates: read-out: CMV-Luc Cellular EC50, NN-NHDF cells, MOI of 1, 72 hrs.
[11] abbreviates: NN-NHDF cells, MOI of 1, 72 hrs, read-out: CMV-Luc Cellular EC50.

Consider 26 compounds from patent US20250353820A1, “ANTIVIRAL PYRAZOLOPYRIDINONE COMPOUNDS” (Novartis AG, priority 2019, published 2025).

Like-named read-outs stand apart in the source and are kept apart here.

For orientation: IC50 means the concentration at which inhibition is half-maximal. `CC(N)COCC(C)(C)S(=O)(=O)C1(CN2CCc3c(C(=O)NCc4ccc(Cl)cc4)nn(C)c3C2=O)CC1` (single isomer, unassigned) [Example 97]: the IC50 in assay [1] is 1 nM; in assay [2] (setting [6]), 23 nM.

On to `CC(N)COCC(C)(C)S(=O)(=O)C1(CN2CCc3c(C(=O)NCc4ccc(Cl)cc4)nn(C)c3C2=O)CC1` (single isomer, unassigned) [Example 98], for which the IC50 in assay [1] (read-out: CMV-polymerase Biochemical IC50, 100 pM CMV polymerase, 60 minutes at room temperature) stood at 1 nM; in assay [2] (setting [6]), 26 nM.

With `CC(N)COCC(C)(C)S(=O)(=O)C1(CN2CCc3c(C(=O)NCc4ccc(C#N)cc4)nn(C)c3C2=O)CC1` (single isomer, unassigned) [Example 99], the figures for the IC50 in assay [1] and in assay [2] (setting [6]) were 4 nM and 63 nM, respectively.

By EC50 is commonly meant the concentration needed to bring the measured effect to its halfway point. Take `CC(N)COCC(C)(C)S(=O)(=O)C1(CN2CCc3c(C(=O)NCc4ccc(C#N)cc4)nn(C)c3C2=O)CC1` (single isomer, unassigned) [Example 100, (R)- or (S)-6-((1-((1-(2-Aminopropoxy)-2-methylpropan-2-yl)sulfonyl)cyclopropyl)methyl)-N-(4-cyanobenzyl)-1-methyl-7-oxo-4,5,6,7-tetrahydro-1H-pyrazolo[3,4-c]pyridine-3-carboxamide]: the IC50 stood at 4 nM in assay [1] (setting [7]) and 60 nM in assay [2] (setting [8]). In addition, the EC50 in assay [3] (setting [9]) was 13 nM.

Take `Cn1nc(C(=O)NCc2ccc(C#N)cc2)c2c1C(=O)N(CC1(S(=O)(=O)C3CCOC3)CC1)CC2` (single isomer, unassigned) [Example 170]: the values for the IC50 in assay [1] (setting [7]) and in assay [2] (setting [8]) were 4 nM and 122 nM, respectively.

For the compound `Cn1nc(C(=O)NCc2ccc(C#N)cc2)c2c1C(=O)N(CC1(S(=O)(=O)C3CCOC3)CC1)CC2` (single isomer, unassigned) [Example 171], the values for the IC50 in assay [1] (setting [7]) and in assay [2] (setting [8]) were 3 nM and 78 nM, respectively. The EC50 in assay [3] (setting [10]) is 104 nM.

On to `Cn1nc(C(=O)NCc2ccc(C#N)cc2)c2c1C(=O)N(CC1(S(=O)(=O)C(C)(CN)CO)CC1)CC2` (single isomer, unassigned) [Example 184], for which the IC50 stood at 4 nM in assay [1] (setting [7]) and 52 nM in assay [2] (setting [8]).

As for `Cn1nc(C(=O)NCc2ccc(C#N)cc2)c2c1C(=O)N(CC1(S(=O)(=O)C(C)(CN)CO)CC1)CC2` (single isomer, unassigned) [Example 185], the IC50 in assay [1] (setting [7]) was 4 nM; in assay [2] (setting [8]) it was 59 nM. Also, the EC50 in assay [3] (setting [10]) is 275 nM.

`Cn1nc(C(=O)NCc2ccc(Cl)cc2)c2c1C(=O)N(CC1(S(=O)(=O)C(C)(CN)CO)CC1)CC2` (single isomer, unassigned) [Example 188]: in assay [2] (setting [8]), the IC50 was 108 nM. For the same compound, the EC50 in assay [3] (setting [10]) came out at 160 nM.

Regarding `Cn1nc(C(=O)NCc2ccc(C#N)cc2)c2c1C(=O)N(CC1(S(=O)(=O)C3(C(O)CO)CC3)CC1)CC2` (single isomer, unassigned) [Example 195, (R)- or (S)—N-(4-Cyanobenzyl)-6-((1-((1-(1,2-dihydroxyethyl)cyclopropyl)sulfonyl)cyclopropyl)methyl)-1-methyl-7-oxo-4,5,6,7-tetrahydro-1H-pyrazolo[3,4-c]pyridine-3-carboxamide], in assay [1] (setting [7]), the IC50 was 1 nM. Also, the EC50 in assay [3] (setting [10]) was determined as 53 nM.

With `Cn1nc(C(=O)NCc2ccc(Cl)cc2)c2c1C(=O)N(CC1(S(=O)(=O)C3(C(O)CO)CC3)CC1)CC2` (single isomer, unassigned) [Example 196], the IC50 in assay [1] (setting [7]) worked out at 1 nM; in assay [2] (setting [8]), 19 nM. Further, the EC50 in assay [3] (setting [9]) is 19 nM.

In the case of `Cn1nc(C(=O)NCc2ccc(Cl)cc2)c2c1C(=O)N(CC1(S(=O)(=O)C3(C(O)CO)CC3)CC1)CC2` (single isomer, unassigned) [Example 197], in assay [1] (setting [7]), the IC50 came out at 1 nM. Further, the EC50 in assay [3] (setting [10]) was determined as 20 nM.

Take `Cn1nc(C(=O)NCc2ccc(C#N)cc2)c2c1C(=O)N(CC1(S(=O)(=O)C(C)(C)C(O)CN)CC1)CC2` (single isomer, unassigned) [Example 199]: the values for the concentration for half-maximal inhibition (IC50) in assay [1] (setting [7]) and in assay [2] (setting [8]) were 1 nM and 28 nM, respectively. In addition, the EC50 was found to be 127 nM in the assay on VZV Ellen strain; 11 nM in assay [4]; 30 nM in assay [5] (Human alphaherpesvirus 1, 24 h).

Consider `Cn1nc(C(=O)NCc2ccc(Cl)cc2)c2c1C(=O)N(CC1(S(=O)(=O)C(C)(C)C(O)CN)CC1)CC2` (single isomer, unassigned) [Example 200], for which the 50% inhibitory concentration (IC50) in assay [1] (setting [7]) amounted to 1 nM; in assay [2] (setting [8]), 14 nM.

Turning to `Cn1nc(C(=O)NCc2ccc(Cl)cc2)c2c1C(=O)N(CC1(S(=O)(=O)C(C)(C)C(O)CN)CC1)CC2` (single isomer, unassigned) [Example 201], the IC50 came to 1 nM in assay [1] (setting [7]) and 15 nM in assay [2] (setting [8]). Moreover, the EC50 came out at 6 nM in assay [3] (setting [10]); 6 nM in assay [3] (read-out: Cellular activity against CMV (EC50), Table 18, CMV); 18 nM in assay [5] (NN-NHDF cells, MOI of 0.01, 24 hrs, qPCR).

On to `CNCC(O)C(C)(C)S(=O)(=O)C1(CN2CCc3c(C(=O)NCc4ccc(C#N)cc4)nn(C)c3C2=O)CC1` (single isomer, unassigned) [Example 202], for which the IC50 was found to be 2 nM in assay [1] (setting [7]) and 30 nM in assay [2] (setting [8]).

Turning to `CNCC(O)C(C)(C)S(=O)(=O)C1(CN2CCc3c(C(=O)NCc4ccc(C#N)cc4)nn(C)c3C2=O)CC1` (single isomer, unassigned) [Example 203], the IC50 in assay [1] (setting [7]) was determined as 2 nM; in assay [2] (setting [8]) it was 38 nM. Also, the EC50 in assay [3] (setting [10]) was 19 nM.

On to `CNCC(O)C(C)(C)S(=O)(=O)C1(CN2CCc3c(C(=O)NCc4ccc(Cl)cc4)nn(C)c3C2=O)CC1` (single isomer, unassigned) [Example 204], for which the IC50 came out at 3 nM in assay [1] (setting [7]) and 37 nM in assay [2] (setting [8]).

With `CNCC(O)C(C)(C)S(=O)(=O)C1(CN2CCc3c(C(=O)NCc4ccc(Cl)cc4)nn(C)c3C2=O)CC1` (single isomer, unassigned) [Example 205], the IC50 in assay [1] (setting [7]) amounted to 2 nM; in assay [2] (setting [8]) it was 29 nM. In assay [3] (setting [10]), the EC50 was 9 nM.

As to `CN(C)CC(O)C(C)(C)S(=O)(=O)C1(CN2CCc3c(C(=O)NCc4ccc(Cl)cc4)nn(C)c3C2=O)CC1` (single isomer, unassigned) [Example 206], the IC50 in assay [1] (setting [7]) is 21 nM; in assay [2] (setting [8]), 74 nM.

`CN(C)CC(O)C(C)(C)S(=O)(=O)C1(CN2CCc3c(C(=O)NCc4ccc(Cl)cc4)nn(C)c3C2=O)CC1` (single isomer, unassigned) [Example 207]: the figures for the IC50 in assay [1] (setting [7]) and in assay [2] (setting [8]) were 23 nM and 88 nM, respectively. The concentration giving a half-maximal response (EC50) in assay [3] (setting [10]) was 50 nM.

With `N#Cc1ccc(CNC(=O)c2n[nH]c3c2CCN(CC2(S(=O)(=O)C4CC4)CC2)C3=O)cc1` [Example 45, N-(4-Cyanobenzyl)-6-((1-(cyclopropylsulfonyl)cyclopropyl)methyl)-7-oxo-4,5,6,7-tetrahydro-1H-pyrazolo[3,4-c]pyridine-3-carboxamide], the results for the IC50 in assay [1] (setting [7]) and in assay [2] (setting [8]) were 6 nM and 169 nM, respectively. Further, the EC50 in assay [3] (setting [9]) was 146 nM.

For the compound `Cn1nc(C(=O)NCc2ccc(C#N)cc2)c2c1C(=O)N(CC1(S(=O)(=O)C(C)(C)COCCO)CC1)CC2` [Example 87, N-(4-Cyanobenzyl)-6-((1-((1-(2-hydroxyethoxy)-2-methylpropan-2-yl)sulfonyl)cyclopropyl)methyl)-1-methyl-7-oxo-4,5,6,7-tetrahydro-1H-pyrazolo[3,4-c]pyridine-3-carboxamide], the IC50 was 1 nM in assay [1] (setting [7]) and 32 nM in assay [2] (setting [8]). Further, the EC50 in assay [3] (setting [9]) came to 44 nM.

Turning to `Cn1nc(C(=O)NCc2ccc(Cl)cc2)c2c1C(=O)N(CC1(S(=O)(=O)C(C)(CN)CO)CC1)CC2` (centres unmarked) [Example 186], the IC50 in assay [2] (setting [8]) came out at 37 nM. Moreover, in assay [3] (setting [11]), the EC50 came to 90 nM.

As to `Cn1nc(C(=O)NCc2ccc(C#N)cc2)c2c1C(=O)N(CC1(S(=O)(=O)C(C)(C)[C@H](O)CO)CC1)CC2` [Example 193, (R)—N-(4-cyanobenzyl)-6-((1-((3,4-dihydroxy-2-methylbutan-2-yl)sulfonyl)cyclopropyl)methyl)-1-methyl-7-oxo-4,5,6,7-tetrahydro-1H-pyrazolo[3,4-c]pyridine-3-carboxamide], in assay [2] (setting [8]), the IC50 was 11 nM. In assay [3] (setting [9]), the EC50 was determined as 22 nM.

As for `CC(C)[C@@H](NS(=O)(=O)C1(CN2CCc3c(C(=O)NCc4ccc(Cl)cc4)nn(C)c3C2=O)CC1)C(=O)O` [Example 215, ((1-((3-((4-Chlorobenzyl)carbamoyl)-1-methyl-7-oxo-1,4,5,7-tetrahydro-6H-pyrazolo[3,4-c]pyridin-6-yl)methyl)cyclopropyl)sulfonyl)-D-valine], the IC50 in assay [1] (setting [7]) was 1 nM; in assay [2] (setting [8]), 28 nM. Moreover, the EC50 in assay [3] (setting [11]) is 1900 nM.
